# pEC50: −log10 of the molar value.
# Target: T1, HEK cells stably transfected with tetracycline inducible hNR1 and hNR2A (Homo sapiens, UniProt Q05586+Q12879)
# T1 construct: expressed in transfected cells; host or cells: HEK cells, stably transfected, tetracycline/doxycycline inducible
# Test: Assay 1: Cell-Based Assay, cytosolic calcium response to positive allosteric modulators (with 30 μM glycine and 300 nM L-glutamate, EC30)
# Conditions: Table 3; cytosolic calcium response, with 30 μM glycine and 300 nM L-glutamate (EC30); — = no plateau was reached
# Procedure, shortened: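 Cells induced 24 h with 7.5 μg mL^−1 doxycycline plus 500 μM (+)-ketamine, loaded 60 min at 37 °C with calcium dye in Mg-free HBSS (1.8 mM Ca, probenecid, 10 μM (+)-ketamine, pH 7.15). Peak RFU over 5 min after compound addition, scaled to 100 μM L-glutamate (100%) and 0 μM (0%); four-parameter Hill fit for EC50, max % if no plateau.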
# T1 sequence (Q12879 23-1464, other chains not shown): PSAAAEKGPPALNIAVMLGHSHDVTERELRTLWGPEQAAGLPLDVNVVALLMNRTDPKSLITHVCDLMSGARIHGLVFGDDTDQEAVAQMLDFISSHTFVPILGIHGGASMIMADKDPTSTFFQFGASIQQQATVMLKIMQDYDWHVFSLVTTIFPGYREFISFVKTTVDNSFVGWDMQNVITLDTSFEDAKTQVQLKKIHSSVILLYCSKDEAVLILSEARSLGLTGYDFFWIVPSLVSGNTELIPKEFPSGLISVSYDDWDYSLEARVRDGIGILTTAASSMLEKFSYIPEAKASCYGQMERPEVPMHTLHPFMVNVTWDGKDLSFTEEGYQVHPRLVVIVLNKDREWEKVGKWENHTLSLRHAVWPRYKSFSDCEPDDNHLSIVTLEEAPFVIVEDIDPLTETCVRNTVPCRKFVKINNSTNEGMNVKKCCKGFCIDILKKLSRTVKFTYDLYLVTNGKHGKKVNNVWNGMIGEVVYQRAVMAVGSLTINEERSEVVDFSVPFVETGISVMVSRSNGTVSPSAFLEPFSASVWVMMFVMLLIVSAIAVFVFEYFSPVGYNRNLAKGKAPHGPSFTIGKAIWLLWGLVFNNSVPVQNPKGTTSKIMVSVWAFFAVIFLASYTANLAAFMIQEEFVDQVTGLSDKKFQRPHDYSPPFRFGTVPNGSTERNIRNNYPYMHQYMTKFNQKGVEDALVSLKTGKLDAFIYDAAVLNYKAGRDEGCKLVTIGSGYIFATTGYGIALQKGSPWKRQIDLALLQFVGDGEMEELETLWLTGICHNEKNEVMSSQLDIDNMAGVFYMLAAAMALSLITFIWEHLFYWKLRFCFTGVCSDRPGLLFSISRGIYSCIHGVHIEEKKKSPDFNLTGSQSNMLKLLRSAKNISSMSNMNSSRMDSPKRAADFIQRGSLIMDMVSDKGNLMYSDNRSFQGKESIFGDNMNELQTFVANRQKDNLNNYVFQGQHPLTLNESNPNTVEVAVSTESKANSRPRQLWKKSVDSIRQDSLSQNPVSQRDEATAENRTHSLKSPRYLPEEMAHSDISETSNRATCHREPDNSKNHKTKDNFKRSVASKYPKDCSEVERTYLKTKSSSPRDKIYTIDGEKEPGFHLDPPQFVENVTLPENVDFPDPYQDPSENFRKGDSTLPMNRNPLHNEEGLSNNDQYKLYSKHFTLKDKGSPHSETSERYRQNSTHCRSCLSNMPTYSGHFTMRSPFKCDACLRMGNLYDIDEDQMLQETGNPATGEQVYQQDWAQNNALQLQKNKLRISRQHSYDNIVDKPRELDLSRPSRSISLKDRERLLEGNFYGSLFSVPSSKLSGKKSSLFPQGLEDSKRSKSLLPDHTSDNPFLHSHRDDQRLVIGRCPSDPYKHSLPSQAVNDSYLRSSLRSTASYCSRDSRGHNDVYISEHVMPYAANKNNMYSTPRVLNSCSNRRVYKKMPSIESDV
row,Compound,pEC50
1,"Cc1sc2nc(Oc3cccc(C(F)(F)F)c3)cc(=O)n2c1C1CC1CO (stereo not drawn) [compound 12, 3-[2-(Hydroxymethyl)cyclopropyl]-2-methyl-7-[3-(trifluoromethyl)phenoxy]thiazolo[3,2-a]pyrimidin-5-one]",5.69
2,"Cc1sc2nc(Cc3cccc(C#N)c3F)c(F)c(=O)n2c1C(=O)NCC(F)(F)F [compound 15, 7-[(3-cyano-2-fluoro-phenyl)methyl]-6-fluoro-2-methyl-5-oxo-N-(2,2,2-trifluoroethyl)thiazolo[3,2-a]pyrimidine-3-carboxamide]",5.04
3,"CNC(=O)c1c(C)sc2nc(Cc3cc(F)c(F)cc3Cl)cc(=O)n12 [compound 16, 7-[(2-chloro-4,5-difluoro-phenyl)methyl]-N,2-dimethyl-5-oxo-thiazolo[3,2-a]pyrimidine-3-carboxamide]",4.81
4,"CCNC(=O)c1c(C)sc2nc(Cc3cc(F)c(F)cc3CCF)cc(=O)n12 [compound 17, 7-[[4,5-difluoro-2-(2-fluoroethyl)phenyl]methyl]-N-ethyl-2-methyl-5-oxo-thiazolo[3,2-a]pyrimidine-3-carboxamide]",5.15
5,"CNC(=O)Cc1c(C)sc2nc(Cn3nc(C(F)(F)F)cc3C3CC3)cc(=O)n12 [compound 18, 2-[7-[[5-cyclopropyl-3-(trifluoromethyl)pyrazol-1-yl]methyl]-2-methyl-5-oxo-thiazolo[3,2-a]pyrimidin-3-yl]-N-methyl-acetamide]",5.65
6,"CNC(=O)Cc1c(C)sc2nc(Cc3cccc(C(F)(F)F)c3F)cc(=O)n12 [compound 19, 2-[7-[[2-fluoro-3-(trifluoromethyl)phenyl]methyl]-2-methyl-5-oxo-thiazolo[3,2-a]pyrimidin-3-yl]-N-methyl-acetamide]",5.26
7,"CCNC(=O)c1c(C)sc2nc(Cn3nc(C)cc3Cl)cc(=O)n12 [compound 20, 7-[(5-chloro-3-methyl-pyrazol-1-yl)methyl]-N-ethyl-2-methyl-5-oxo-thiazolo[3,2-a]pyrimidine-3-carboxamide]",4.99
8,"CCNC(=O)c1c(C)sc2nc(Cn3nc(Cl)cc3C)cc(=O)n12 [compound 21, 7-[(3-chloro-5-methyl-pyrazol-1-yl)methyl]-N-ethyl-2-methyl-5-oxo-thiazolo[3,2-a]pyrimidine-3-carboxamide]",5.10
9,"CCNC(=O)c1c(C)sc2nc(Cn3nc(Cl)cc3C3CC3)cc(=O)n12 [compound 22, 7-[(3-chloro-5-cyclopropyl-pyrazol-1-yl)methyl]-N-ethyl-2-methyl-5-oxo-thiazolo[3,2-a]pyrimidine-3-carboxamide]",5.38
10,"CCNC(=O)c1c(C)sc2nc(Cn3nc(C4CC4)cc3Cl)cc(=O)n12 [compound 23, 7-[(5-chloro-3-cyclopropyl-pyrazol-1-yl)methyl]-N-ethyl-2-methyl-5-oxo-thiazolo[3,2-a]pyrimidine-3-carboxamide]",5.46
11,"CCNC(=O)c1c(C)sc2nc(Cn3nc(C(F)(F)F)cc3C)cc(=O)n12 [compound 26, N-ethyl-2-methyl-7-[[5-methyl-3-(trifluoromethyl)pyrazol-1-yl]methyl]-5-oxo-thiazolo[3,2-a]pyrimidine-3-carboxamide]",5.32
12,"CCNC(=O)c1c(C)sc2nc(Cn3nc(C)cc3C(F)(F)F)cc(=O)n12 [compound 27, N-ethyl-2-methyl-7-[[3-methyl-5-(trifluoromethyl)pyrazol-1-yl]methyl]-5-oxo-thiazolo[3,2-a]pyrimidine-3-carboxamide]",4.97
13,"CCNC(=O)c1c(C)sc2nc(Cn3nc(Cl)cc3C(F)(F)F)cc(=O)n12 [compound 29, 7-[[3-chloro-5-(trifluoromethyl)pyrazol-1-yl]methyl]-N-ethyl-2-methyl-5-oxo-thiazolo[3,2-a]pyrimidine-3-carboxamide]",5.75
14,"CNC(=O)c1c(C)sc2nc(Cc3cccc(C(F)F)c3F)c(F)c(=O)n12 [compound 30, 7-[[3-(difluoromethyl)-2-fluoro-phenyl]methyl]-6-fluoro-N,2-dimethyl-5-oxo-thiazolo[3,2-a]pyrimidine-3-carboxamide]",5.59
15,"CCNC(=O)c1c(C)sc2nc(Cc3cccc(C(F)F)c3F)c(F)c(=O)n12 [compound 31, 7-[[3-(difluoromethyl)-2-fluoro-phenyl]methyl]-N-ethyl-6-fluoro-2-methyl-5-oxo-thiazolo[3,2-a]pyrimidine-3-carboxamide]",5.38
16,"CNC(=O)c1c(C)sc2nc(Cc3ccc4c(c3)CC4)cc(=O)n12 [compound 32, 7-(4-bicyclo[4.2.0]octa-1,3,5-trienylmethyl)-N,2-dimethyl-5-oxo-thiazolo[3,2-a]pyrimidine-3-carboxamide]",5.23
17,"CCNC(=O)c1c(C)sc2nc(Cc3cccc(C4(O)CC4)c3F)cc(=O)n12 [compound 33, N-ethyl-7-[[2-fluoro-3-(1-hydroxycyclopropyl)phenyl]methyl]-2-methyl-5-oxo-thiazolo[3,2-a]pyrimidine-3-carboxamide]",5.19
18,"Cc1sc2nc(Oc3cccc(C(F)(F)F)c3)c(F)c(=O)n2c1C1CC1CO (stereo not drawn) [compound 34, 6-fluoro-3-[2-(hydroxymethyl)cyclopropyl]-2-methyl-7-[3-(trifluoromethyl)phenoxy]thiazolo[3,2-a]pyrimidin-5-one]",4.61
19,"CCNC(=O)c1c(C)sc2nc(Cc3cccc(C4(F)CC4)c3F)cc(=O)n12 [compound 35, N-ethyl-7-[[2-fluoro-3-(1-fluorocyclopropyl)phenyl]methyl]-2-methyl-5-oxo-thiazolo[3,2-a]pyrimidine-3-carboxamide]",5.40
20,"C#Cc1cc(F)c(F)cc1Cc1cc(=O)n2c(C(=O)NC)c(C)sc2n1 [compound 37, 7-[(2-ethynyl-4,5-difluoro-phenyl)methyl]-N,2-dimethyl-5-oxo-thiazolo[3,2-a]pyrimidine-3-carboxamide]",5.04
21,"Cc1sc2nc(Cc3cccc(C#N)c3F)cc(=O)n2c1C1CC1(F)F (stereo not drawn) [compound 39, 3-[[3-(2,2-Difluorocyclopropyl)-2-methyl-5-oxo-thiazolo[3,2-a]pyrimidin-7-yl]methyl]-2-fluorobenzonitrile]",5.21
22,"CCNC(=O)c1c(C(F)(F)F)sc2nc(Cc3cccc(C#N)c3F)cc(=O)n12 [compound 41, 7-[(3-cyano-2-fluoro-phenyl)methyl]-N-ethyl-5-oxo-2-(trifluoromethyl)thiazolo[3,2-a]pyrimidine-3-carboxamide]",5.32

# Results, then the molecule that gave them:
row,pEC50,Compound
1,6.07,"CCNC(=O)c1c(C)sc2nc(Cc3cccc(C(F)(F)F)c3F)c(F)c(=O)n12 [compound 13, N-ethyl-6-fluoro-7-[[2-fluoro-3-(trifluoromethyl)phenyl]methyl]-2-methyl-5-oxo-thiazolo[3,2-a]pyrimidine-3-carboxamide]"
2,5.81,"CNC(=O)c1c(C)sc2nc(Cc3cc(C(F)(F)F)ccc3Cl)cc(=O)n12 [compound 14, 7-[[2-chloro-5-(trifluoromethyl)phenyl]methyl]-N,2-dimethyl-5-oxo-thiazolo[3,2-a]pyrimidine-3-carboxamide]"
3,5.88,"Cc1sc2nc(Cc3nc(C(F)(F)F)cs3)cc(=O)n2c1C1CC1CO (stereo not drawn) [compound 24, 3-[2-(Hydroxymethyl)cyclopropyl]-2-methyl-7-[[4-(trifluoromethyl)thiazol-2-yl]methyl]thiazolo[3,2-a]pyrimidin-5-one]"
4,6.53,"CCN(Cc1cc(=O)n2c(CC(=O)NC)c(C)sc2n1)c1ccc(F)cc1 [compound 25, 2-[7-[(N-ethyl-4-fluoro-anilino)methyl]-2-methyl-5-oxo-thiazolo[3,2-a]pyrimidin-3-yl]-N-methyl-acetamide]"
5,6.41,"CCNC(=O)c1c(C)sc2nc(Cn3nc(C(F)(F)F)cc3Cl)cc(=O)n12 [compound 28, 7-[[5-Chloro-3-(trifluoromethyl)-1H-pyrazol-1-yl]methyl]-N-ethyl-2-methyl-5-oxo-5H-[1,3]thiazolo[3,2-a]pyrimidine-3-carboxamide]"
6,5.76,"C=C(CF)c1cccc(Cc2cc(=O)n3c(C(=O)NCC)c(C)sc3n2)c1F [compound 36, N-ethyl-7-[[2-fluoro-3-[1-(fluoromethyl)vinyl]phenyl]methyl]-2-methyl-5-oxo-thiazolo[3,2-a]pyrimidine-3-carboxamide]"
7,6.27,"Cc1sc2nc(Cc3cccc(C#N)c3F)cc(=O)n2c1C1CC1C(F)(F)F (stereo not drawn) [compound 38, 2-fluoro-3-[[2-methyl-5-oxo-3-[2-(trifluoromethyl)cyclopropyl]thiazolo[3,2-a]pyrimidin-7-yl]methyl]benzonitrile]"
8,5.88,"CCNC(=O)c1c(C(F)(F)F)sc2nc(Cc3cccc(C(F)(F)F)c3F)cc(=O)n12 [compound 40, N-ethyl-7-[[2-fluoro-3-(trifluoromethyl)phenyl]methyl]-5-oxo-2-(trifluoromethyl)thiazolo[3,2-a]pyrimidine-3-carboxamide]"
9,5.80,"CCNC(=O)c1c(C(F)(F)F)sc2nc(Cc3cccc(C(F)F)c3F)cc(=O)n12 [compound 42, 7-[[3-(difluoromethyl)-2-fluoro-phenyl]methyl]-N-ethyl-5-oxo-2-(trifluoromethyl)thiazolo[3,2-a]pyrimidine-3-carboxamide]"
10,6.44,"CCNC(=O)c1c(C(F)(F)F)sc2nc(Cn3nc(C(F)(F)F)cc3Cl)cc(=O)n12 [compound 43, 7-[[5-chloro-3-(trifluoromethyl)pyrazol-1-yl]methyl]-N-ethyl-5-oxo-2-(trifluoromethyl)thiazolo[3,2-a]pyrimidine-3-carboxamide]"
11,6.16,"CCNC(=O)c1c(C(F)(F)F)sc2nc(Cn3nc(Cl)cc3C(F)(F)F)cc(=O)n12 [compound 44, 7-[[3-chloro-5-(trifluoromethyl)pyrazol-1-yl]methyl]-N-ethyl-5-oxo-2-(trifluoromethyl)thiazolo[3,2-a]pyrimidine-3-carboxamide]"

# Reference: US9988400B2 (Genentech, Inc., priority 2013, dated 2018)
